Measurements reported in publication PMC11062899, “De novo development of small cyclic peptides that are orally bioavailable” (Nature Chemical Biology, 2023).
Values joined by “and” are separate entries in the source; they are usually repeats but may differ in a detail not shown here. Equal values may be shown once. Read-outs that look alike come from different tables or passages of the source.

Experiments:
[1] = Passive artificial membrane permeability (PAMPA); conditions: for PAMPA permeability: % permeability: 50 μM, 12–18 h, acceptor concentration relative to equilibrium; for Papp at 50 μM: pH 7.4; for Permeability% Average: average of R1-R3; for Permeability%: single replicates R1-R3
human α-thrombin = human α-thrombin (Homo sapiens, UniProt P00734); assay: Protease inhibition, Ki for human α-thrombin (fluorogenic substrate Z-Gly-Gly-Arg-AMC); assay type: biochemical; conditions: for Slope normalized to DMSO (proteolytic substrate cleavage over time) / Human alpha thrombin inhibition, slope normalized to DMSO: replicates R1-R3
Procedure, shortened: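 Ki values come from Cheng–Prusoff correction of IC50, itself fitted by four-parameter logistic regression of activity versus a no-peptide control. Assays used 2 nM human or 3 nM rat thrombin, 50 μM Z-Gly-Gly-Arg-AMC, 30 min kinetic fluorescence at 25 °C.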

[2] = top well sample vs theoretical equilibrium sample (TIC)
[3] = human alpha thrombin, peptide 1.02E-03 uM
[4] = human alpha thrombin, peptide 1.04E+00 uM
[5] = human alpha thrombin, peptide 1.27E-04 uM
[6] = human alpha thrombin, peptide 1.30E-01 uM
[7] = human alpha thrombin, peptide 1.59E-05 uM
[8] = human alpha thrombin, peptide 1.63E-02 uM
[9] = human alpha thrombin, peptide 1.67E+01 uM
[10] = human alpha thrombin, peptide 2.03E-03 uM
[11] = human alpha thrombin, peptide 2.08E+00 uM
[12] = human alpha thrombin, peptide 2.54E-04 uM
[13] = human alpha thrombin, peptide 2.60E-01 uM
[14] = human alpha thrombin, peptide 3.18E-05 uM
[15] = human alpha thrombin, peptide 3.26E-02 uM
[16] = human alpha thrombin, peptide 3.33E+01 uM
[17] = human alpha thrombin, peptide 4.07E-03 uM
[18] = human alpha thrombin, peptide 4.17E+00 uM
[19] = human alpha thrombin, peptide 5.09E-04 uM
[20] = human alpha thrombin, peptide 5.21E-01 uM
[21] = human alpha thrombin, peptide 6.36E-05 uM
[22] = human alpha thrombin, peptide 6.51E-02 uM
[23] = human alpha thrombin, peptide 6.67E+01 uM
[24] = human alpha thrombin, peptide 7.95E-06 uM
[25] = human alpha thrombin, peptide 8.14E-03 uM
[26] = human alpha thrombin, peptide 8.33E+00 uM
[27] = human alpha thrombin, single replicates R1-R3, read-out: IC50, human alpha thrombin inhibition
[28] = human alpha thrombin, single replicates R1-R3, read-out: Ki, human alpha thrombin inhibition
[29] = purified peptide, mean and s.d. of three measurements, read-out: Ki human α-thrombin

## O=C1CSCCC[C@H](NC(=O)c2ccc(Cl)s2)C(=O)N[C@@H](Cc2ccccc2)C(=O)N2CCC[C@@H]2CC(=O)NCCSC1 [compound 37]
[1]
  PAMPA permeability: % permeability: 31 ± 10%
[1]; PAMPA
  Papp at 50 μM: 3.47 ×10⁻⁶ cm/s
[1]; [2]
  Permeability% Average: 30.8%
  Permeability%: 38.94% and 34.26% and 19.17%
Human α-thrombin; human alpha thrombin, average of R1-R3, read-out: Ki Average, human alpha thrombin inhibition
  Ki: 20.6 nM
Human α-thrombin; [3]
  Slope normalized to DMSO (proteolytic substrate cleavage over time): 99.8 and 96.2 and 96.4
Human α-thrombin; [4]
  Slope normalized to DMSO (proteolytic substrate cleavage over time): 4.2 and 21.2 and 8.1
Human α-thrombin; [5]
  Slope normalized to DMSO (proteolytic substrate cleavage over time): 99.4 and 96.4 and 91.4
Human α-thrombin; [6]
  Slope normalized to DMSO (proteolytic substrate cleavage over time): 13.4 and 22.3 and 23.1
Human α-thrombin; [7]
  Slope normalized to DMSO (proteolytic substrate cleavage over time): 98.7 and 104.2 and 99.3
Human α-thrombin; [8]
  Slope normalized to DMSO (proteolytic substrate cleavage over time): 59.7 and 68.6 and 65.4
Human α-thrombin; [9]
  Slope normalized to DMSO (proteolytic substrate cleavage over time): 1.8 and 5.4 and -0.5
Human α-thrombin; [10]
  Slope normalized to DMSO (proteolytic substrate cleavage over time): 99.7 and 85.8 and 91.5
Human α-thrombin; [11]
  Slope normalized to DMSO (proteolytic substrate cleavage over time): 2.6 and 15.2 and 7.7
Human α-thrombin; [12]
  Slope normalized to DMSO (proteolytic substrate cleavage over time): 103.4 and 95.2 and 94.0
Human α-thrombin; [13]
  Slope normalized to DMSO (proteolytic substrate cleavage over time): 9.5 and 17.0 and 11.6
Human α-thrombin; [14]
  Slope normalized to DMSO (proteolytic substrate cleavage over time): 100.4 and 94.1 and 100.2
Human α-thrombin; [15]
  Slope normalized to DMSO (proteolytic substrate cleavage over time): 41.8 and 49.6 and 51.1
Human α-thrombin; [16]
  Slope normalized to DMSO (proteolytic substrate cleavage over time): 1.5 and 2.2 and 1.9
Human α-thrombin; [17]
  Slope normalized to DMSO (proteolytic substrate cleavage over time): 80.8 and 82.5 and 73.0
Human α-thrombin; [18]
  Slope normalized to DMSO (proteolytic substrate cleavage over time): -1.2 and 8.8 and 5.3
Human α-thrombin; [19]
  Slope normalized to DMSO (proteolytic substrate cleavage over time): 101.9 and 94.6 and 97.3
Human α-thrombin; [20]
  Slope normalized to DMSO (proteolytic substrate cleavage over time): 4.7 and 16.3 and 9.9
Human α-thrombin; [21]
  Slope normalized to DMSO (proteolytic substrate cleavage over time): 101.6 and 98.2 and 102.0
Human α-thrombin; [22]
  Slope normalized to DMSO (proteolytic substrate cleavage over time): 27.8 and 39.2 and 31.3
Human α-thrombin; [23]
  Slope normalized to DMSO (proteolytic substrate cleavage over time): 4.9 and 8.1 and 5.5
Human α-thrombin; [24]
  Slope normalized to DMSO (proteolytic substrate cleavage over time): 99.9 and 99.1 (2×)
Human α-thrombin; [25]
  Slope normalized to DMSO (proteolytic substrate cleavage over time): 73.2 and 74.4 and 76.4
Human α-thrombin; [26]
  Slope normalized to DMSO (proteolytic substrate cleavage over time): -0.9 and 2.2 and 1.0
Human α-thrombin; [27]
  IC50: 0.0218 µM and 0.0296 µM and 0.0288 µM
Human α-thrombin; [28]
  Ki: 16.8 nM (2×) and 22.8 nM (2×) and 22.2 nM (2×)

## O=C1C[C@H]2CCCN2C(=O)[C@H](Cc2ccccc2)NC(=O)[C@@H](NC(=O)c2ccc(Cl)s2)CSCCS(=O)(=O)CCSCCN1 [peptide 11]
[1]
  PAMPA permeability: % permeability: 1.23 ± 0.72%
[1]; PAMPA
  Papp at 50 μM: 0.0708 ×10⁻⁶ cm/s
  Permeability% Average: 1.2%
[1]; PAMPA, replicate R1, TIC of top well sample relative to sample at theoretical equilibrium
  Permeability% R1: 0.47%
[1]; PAMPA, replicate R3, TIC of top well sample relative to sample at theoretical equilibrium
  Permeability% R3: 1.91%
Human α-thrombin; human alpha thrombin, individual replicates R1-R3, read-out: IC50
  IC50: 0.122 µM and 0.107 µM and 0.104 µM
Human α-thrombin; human alpha thrombin, individual replicates R1-R3, read-out: Ki
  Ki: 94.1 nM and 82.8 nM and 80.4 nM
Human α-thrombin; human alpha thrombin, average of R1-R3, read-out: Ki Average
  Ki: 85.8 nM
Human α-thrombin; peptide 1.02E-03 uM
  Human alpha thrombin inhibition, slope normalized to DMSO: 92.7 and 96.3 and 98.1
Human α-thrombin; peptide 1.04E+00 uM
  Human alpha thrombin inhibition, slope normalized to DMSO: 14.1 and 15.4 and 19.5
Human α-thrombin; peptide 1.27E-04 uM
  Human alpha thrombin inhibition, slope normalized to DMSO: 98.4 and 100.1 and 101.4
Human α-thrombin; peptide 1.30E-01 uM
  Human alpha thrombin inhibition, slope normalized to DMSO: 51.2 and 52.1 and 48.8
Human α-thrombin; peptide 1.33E+02 uM, slope of proteolytic substrate cleavage over time
  Human alpha thrombin inhibition, slope normalized to DMSO: 8.1 and 8.7 and 9.0
Human α-thrombin; peptide 1.63E-02 uM
  Human alpha thrombin inhibition, slope normalized to DMSO: 87.3 and 78.8 and 85.1
Human α-thrombin; peptide 1.67E+01 uM
  Human alpha thrombin inhibition, slope normalized to DMSO: 9.8 and 9.6 and 8.8
Human α-thrombin; peptide 2.03E-03 uM
  Human alpha thrombin inhibition, slope normalized to DMSO: 100.0 and 90.9 and 98.1
Human α-thrombin; peptide 2.08E+00 uM
  Human alpha thrombin inhibition, slope normalized to DMSO: 10.6 and 11.3 and 7.9
Human α-thrombin; peptide 2.54E-04 uM
  Human alpha thrombin inhibition, slope normalized to DMSO: 99.0 and 98.6 and 98.3
Human α-thrombin; peptide 2.60E-01 uM
  Human alpha thrombin inhibition, slope normalized to DMSO: 38.3 and 36.0 and 36.6
Human α-thrombin; peptide 3.18E-05 uM
  Human alpha thrombin inhibition, slope normalized to DMSO: 100.0 and 103.6 and 101.9
Human α-thrombin; peptide 3.26E-02 uM
  Human alpha thrombin inhibition, slope normalized to DMSO: 77.4 and 76.3
Human α-thrombin; peptide 3.33E+01 uM
  Human alpha thrombin inhibition, slope normalized to DMSO: 8.8 and 8.2 and 6.8
Human α-thrombin; peptide 4.07E-03 uM
  Human alpha thrombin inhibition, slope normalized to DMSO: 95.6 and 92.2 and 94.3
Human α-thrombin; peptide 4.17E+00 uM
  Human alpha thrombin inhibition, slope normalized to DMSO: -2.0 and 6.9 and 2.0
Human α-thrombin; peptide 5.09E-04 uM
  Human alpha thrombin inhibition, slope normalized to DMSO: 98.9 and 97.6 and 107.7
Human α-thrombin; peptide 5.21E-01 uM
  Human alpha thrombin inhibition, slope normalized to DMSO: 24.9 and 24.6 and 25.0
Human α-thrombin; peptide 6.36E-05 uM
  Human alpha thrombin inhibition, slope normalized to DMSO: 101.3 and 99.0 and 104.0
Human α-thrombin; peptide 6.51E-02 uM
  Human alpha thrombin inhibition, slope normalized to DMSO: 65.9 and 65.1 and 64.6
Human α-thrombin; peptide 6.67E+01 uM
  Human alpha thrombin inhibition, slope normalized to DMSO: 8.2 and 10.4 and 4.8
Human α-thrombin; peptide 8.14E-03 uM
  Human alpha thrombin inhibition, slope normalized to DMSO: 92.7 and 91.1 and 94.4
Human α-thrombin; peptide 8.33E+00 uM
  Human alpha thrombin inhibition, slope normalized to DMSO: 14.8 and 11.1
Human α-thrombin; [29]
  Ki: 82 ± 10 nM
Human α-thrombin; single replicates R1-R3, read-out: Ki (nM), human alpha thrombin inhibition
  Ki: 94.1 nM and 82.8 nM and 80.4 nM

## O=C1C[C@H]2CCCN2C(=O)[C@H](Cc2ccccc2)NC(=O)[C@@H](NC(=O)c2ccc(Cl)s2)CSC/C=C/CSCCN1 [peptide 32]
[1]
  PAMPA permeability: % permeability: 47 ± 12%
[1]; PAMPA
  Papp at 50 μM: 6.17 ×10⁻⁶ cm/s
[1]; [2]
  Permeability% Average: 46.9%
  Permeability%: 48.47% and 34.58% and 57.51%
Human α-thrombin; [3]
  Slope normalized to DMSO (proteolytic substrate cleavage over time): 91.7 and 75.0 and 84.5
Human α-thrombin; [4]
  Slope normalized to DMSO (proteolytic substrate cleavage over time): 9.7 and 14.2 and 12.5
Human α-thrombin; [5]
  Slope normalized to DMSO (proteolytic substrate cleavage over time): 92.1 and 89.4 and 95.4
Human α-thrombin; [6]
  Slope normalized to DMSO (proteolytic substrate cleavage over time): 16.4 and 22.7 and 18.5
Human α-thrombin; [7]
  Slope normalized to DMSO (proteolytic substrate cleavage over time): 104.8 and 95.5 and 101.0
Human α-thrombin; [8]
  Slope normalized to DMSO (proteolytic substrate cleavage over time): 54.1 and 48.1 and 57.3
Human α-thrombin; [9]
  Slope normalized to DMSO (proteolytic substrate cleavage over time): 4.0 and 6.4 and 1.8
Human α-thrombin; [10]
  Slope normalized to DMSO (proteolytic substrate cleavage over time): 79.8 and 80.8 and 68.0
Human α-thrombin; [11]
  Slope normalized to DMSO (proteolytic substrate cleavage over time): 5.1 and 8.3 and -0.433
Human α-thrombin; [12]
  Slope normalized to DMSO (proteolytic substrate cleavage over time): 93.1 and 85.9 and 92.0
Human α-thrombin; [13]
  Slope normalized to DMSO (proteolytic substrate cleavage over time): 11.6 and 16.8 and 13.0
Human α-thrombin; [14]
  Slope normalized to DMSO (proteolytic substrate cleavage over time): 103.7 and 94.2 and 96.3
Human α-thrombin; [15]
  Slope normalized to DMSO (proteolytic substrate cleavage over time): 46.3 and 39.7 and 47.4
Human α-thrombin; [16]
  Slope normalized to DMSO (proteolytic substrate cleavage over time): -4.9 and 8.0 and -5.2
Human α-thrombin; [17]
  Slope normalized to DMSO (proteolytic substrate cleavage over time): 68.4 and 49.8 and 67.1
Human α-thrombin; [18]
  Slope normalized to DMSO (proteolytic substrate cleavage over time): 7.1 and 16.4 and 0.5
Human α-thrombin; [19]
  Slope normalized to DMSO (proteolytic substrate cleavage over time): 91.3 and 86.2 and 83.7
Human α-thrombin; [20]
  Slope normalized to DMSO (proteolytic substrate cleavage over time): 9.0 and 17.4 and 10.1
Human α-thrombin; [21]
  Slope normalized to DMSO (proteolytic substrate cleavage over time): 103.6 and 90.9 and 101.0
Human α-thrombin; [22]
  Slope normalized to DMSO (proteolytic substrate cleavage over time): 26.8 and 23.7 and 23.8
Human α-thrombin; [23]
  Slope normalized to DMSO (proteolytic substrate cleavage over time): 5.5 and 8.8 and 5.2
Human α-thrombin; [24]
  Slope normalized to DMSO (proteolytic substrate cleavage over time): 105.4 and 96.7 and 100.1
Human α-thrombin; [25]
  Slope normalized to DMSO (proteolytic substrate cleavage over time): 56.5 and 45.5 and 52.6
Human α-thrombin; [26]
  Slope normalized to DMSO (proteolytic substrate cleavage over time): -1.1 and 9.3 and 3.5
Human α-thrombin; [27]
  IC50: 0.0136 µM and 0.0073 µM and 0.0138 µM
Human α-thrombin; [28]
  Ki: 10.4 nM (2×) and 5.65 nM (2×) and 10.6 nM (2×)
Human α-thrombin; [29]
  Ki: 8.9 ± 2.3 nM
